Measured values: the supplement of paper PMC11424490

Key:
[1] = tested on: NCI-H2122; experiment: combination cScore with sotorasib (Bliss gap around IC50) (%PoC); higher = stronger additive effect
Outline: (§1)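 The score averages the gap between expected and measured viability under Bliss independence, taken over a field around the IC50 of each single agent or, where an IC50 was not reached, at the highest concentrations. Viability came from CellTiter-Glo luminescence, normalised to vehicle wells as percent of control and fitted with four-parameter curves. NCI-H2122, NCI-H358 and SW837 cells were dosed in concentration matrices 24 h after seeding and grown for 72 h, or 144 h for SW837.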

[2] = tested on: SW837; experiment: as above
Outline: as §1

SMILES	combination cScore with sotorasib [1]	combination cScore with sotorasib [2]
CCOC(=O)CCNc1cc(N2CCc3ccccc3CC2)nc(-c2ccccn2)n1 [GSK-J4] + C=CC(=O)N1CCN(c2nc(=O)n(-c3c(C)ccnc3C(C)C)c3nc(-c4c(O)cccc4F)c(F)cc23)[C@@H](C)C1 [sotorasib]	-0.59	-0.52
CC(C)c1cc(-c2n[nH]c(=O)n2-c2ccc3c(ccn3C)c2)c(O)cc1O [Ganetespib] + C=CC(=O)N1CCN(c2nc(=O)n(-c3c(C)ccnc3C(C)C)c3nc(-c4c(O)cccc4F)c(F)cc23)[C@@H](C)C1 [sotorasib]	-1.8	7.55
Nc1ccn([C@@H]2O[C@H](CO)[C@@H](O)C2(F)F)c(=O)n1 [Gemcitabine] + C=CC(=O)N1CCN(c2nc(=O)n(-c3c(C)ccnc3C(C)C)c3nc(-c4c(O)cccc4F)c(F)cc23)[C@@H](C)C1 [sotorasib]	3.14	1.12
COc1ncc(-c2nc3c(n2C(C)C)[C@H](c2ccc(Cl)cc2)N(c2cc(Cl)cn(C)c2=O)C3=O)c(OC)n1 [HDM-201] + C=CC(=O)N1CCN(c2nc(=O)n(-c3c(C)ccnc3C(C)C)c3nc(-c4c(O)cccc4F)c(F)cc23)[C@@H](C)C1 [sotorasib]	1.73	7.32
CC(=O)[C@]1(O)Cc2c(O)c3c(c(O)c2[C@@H](O[C@H]2C[C@H](N)[C@H](O)[C@H](C)O2)C1)C(=O)c1ccccc1C3=O [Idarubicin] + C=CC(=O)N1CCN(c2nc(=O)n(-c3c(C)ccnc3C(C)C)c3nc(-c4c(O)cccc4F)c(F)cc23)[C@@H](C)C1 [sotorasib]	8.08	5.83
Cc1ccc(NC(=O)c2ccc(CN3CCN(C)CC3)cc2)cc1Nc1nccc(-c2cccnc2)n1 [Imatinib] + C=CC(=O)N1CCN(c2nc(=O)n(-c3c(C)ccnc3C(C)C)c3nc(-c4c(O)cccc4F)c(F)cc23)[C@@H](C)C1 [sotorasib]	-1.79	2.47
CC(C)NC[C@@H](C(=O)N1CCN(c2ncnc3c2[C@H](C)C[C@H]3O)CC1)c1ccc(Cl)cc1 [Ipatasertib] + C=CC(=O)N1CCN(c2nc(=O)n(-c3c(C)ccnc3C(C)C)c3nc(-c4c(O)cccc4F)c(F)cc23)[C@@H](C)C1 [sotorasib]	12.3	11.4
O=C(/C=C\n1cnc(-c2cc(C(F)(F)F)cc(C(F)(F)F)c2)n1)NNc1cnccn1 [KPT-330] + C=CC(=O)N1CCN(c2nc(=O)n(-c3c(C)ccnc3C(C)C)c3nc(-c4c(O)cccc4F)c(F)cc23)[C@@H](C)C1 [sotorasib]	3.63	0.325
CN[C@@H](C)C(=O)N[C@H](C(=O)N1CCC[C@H]1c1nc(C(=O)c2ccc(F)cc2)cs1)C1CCCCC1 [LCL161] + C=CC(=O)N1CCN(c2nc(=O)n(-c3c(C)ccnc3C(C)C)c3nc(-c4c(O)cccc4F)c(F)cc23)[C@@H](C)C1 [sotorasib]	2.3	-3.76
COc1ccccc1-c1cc(Nc2cccc(CS(N)(=O)=O)c2)ncn1 [LDC-067] + C=CC(=O)N1CCN(c2nc(=O)n(-c3c(C)ccnc3C(C)C)c3nc(-c4c(O)cccc4F)c(F)cc23)[C@@H](C)C1 [sotorasib]	5.31	11.1
Cc1cn(CCN2CCN(c3ccccc3-c3cc(C#N)cc(C(=O)NCCCN4CCCC4)c3)CC2)c2ccccc12 [LLY-507] + C=CC(=O)N1CCN(c2nc(=O)n(-c3c(C)ccnc3C(C)C)c3nc(-c4c(O)cccc4F)c(F)cc23)[C@@H](C)C1 [sotorasib]	0.73	9.15
Cc1ccc(NC(=O)c2ccnc(C(F)(F)F)c2)cc1-c1cc(OCCO)nc(N2CCOCC2)c1 [LXH-254] + C=CC(=O)N1CCN(c2nc(=O)n(-c3c(C)ccnc3C(C)C)c3nc(-c4c(O)cccc4F)c(F)cc23)[C@@H](C)C1 [sotorasib]	7.11	5.53
Nc1cccc2c1CN(C1CCC(=O)NC1=O)C2=O (stereo not drawn) [Lenalidomide] + C=CC(=O)N1CCN(c2nc(=O)n(-c3c(C)ccnc3C(C)C)c3nc(-c4c(O)cccc4F)c(F)cc23)[C@@H](C)C1 [sotorasib]	6.13	-2.25
O=C(O)c1nn(Cc2ccc(Cl)cc2Cl)c2ccccc12 [Lonidamine] + C=CC(=O)N1CCN(c2nc(=O)n(-c3c(C)ccnc3C(C)C)c3nc(-c4c(O)cccc4F)c(F)cc23)[C@@H](C)C1 [sotorasib]	-0.87	2.86
